In PubChem BioAssay AID2060502 (Molecular Pharmacology Branch, DTP, NCI, 2025):
pIC50: −log10 of the molar value. Where “and” joins values, the source holds several entries; their conditions need not be identical. Equal entries are not always repeated.

Tested on: 885724-159-R-J1-PDC complex spheroid viability
Assay: Anticancer human tumor 885724-159-R-J1-PDC patient-derived pancreatic adenocarcinoma cell line growth inhibition [GQUAD]
Conditions: for viability, T/C: stronger effect = lower value
Text: DNA G-quadruplex Stabilizer Agents in Combinations in Complex Spheroids
A high-throughput screen of multi-cell type tumor spheroids was designed to identify active combinations of DNA G-quadruplex stabilizer agents and targeted small molecules. Complex spheroids include a stromal component modeled by human endothelial cells (HUVEC) and fibroblasts modeled by human mesenchymal stem cells (MSCs). The concentration ranges selected for each drug and investigational agent were based upon clinically achievable concentrations if the clinical Cmax of the agent was known.
Compounds. The drugs and investigational agents: pidnarulex (CX-5461; NSC782164), APTO-253 (NSC789042), BRACO-19 (NSC847499), peposertib (NSC802822), ceralasertib (NSC780249), elimusertib (NSC800525), camonsertib (NSC841442), AZD-1390 (NSC803789), olaparib (NSC753686), talazoparib (NSC767125), ART-558 (NSC835418), sotorasib (NSC818433), MRTX-1133 (NSC836407), SN-38 (NSC673596), topotecan (NSC609699), etoposide (NSC141540), doxorubicin (NSC123127), gemcitabine (NSC613327), 5-fluorouracil (NSC19893), paclitaxel (NSC125973), vemurafenib (NSC761431), panobinostat (NSC761190), R-306465 (JNJ-16241199; NSC773264), adavosertib (NSC754352), TP-3654 (NSC805149), carboplatin (NSC241240), KSQ-4279 (NSC840948), and staurosporine (NSC755774) were obtained from the National Cancer Institute (NCI) Developmental Therapeutics Program Chemical Repository (34). The FDA-approved anticancer drug set is available from the NCI Developmental Therapeutics Program. […] The stock solutions were prepared in dimethyl sulfoxide (DMSO, Sigma-Aldrich, St. Louis, MO, cat. D2650) at 800-fold the tested concentration and stored at -70 degrees C prior to their use. All drugs and investigational agents were tested over a range starting from a high concentration at or near the clinical Cmax and decreasing in half-log increments. If the clinical Cmax for an agent had not been determined, the highest concentration tested was 10 microM.
2.3 Cell Culture. All cells were maintained in an incubator at 37 degrees C and 5% CO2 with 95% humidity. The PDC lines were cultured according to standard operating procedures established by the NCI PDMR. All PDCs were thawed and cultured in Matrigel-coated flasks prepared with a working solution of 1X Ham's F-12 nutrient mix, without supplementation (Invitrogen, cat. 11765054), 100 U/mL penicillin-streptomycin (Invitrogen, cat. 15140122), and 2.5% Matrigel (Corning Inc., cat. 354248) for the first three passages. The 857933-349-R-J2-PDC line was cultured in 6C/Colon 1B media, which includes advanced DMEM/F-12 (Thermo Fisher Scientific, cat. 12634028), 10 mM HEPES (Thermo Fisher Scientific, cat. 15630080), 1X GlutaMAX supplement (Thermo Fisher Scientific, cat. 35050061), 0.1 mg/mL primocin (InvivoGen, cat. ant-pm-2), 10% defined fetal bovine serum, heat inactivated (HyClone Laboratories Inc., cat. SH30070.03HI), 50% L-WRN conditioned media (ATCC, cat. CRL-3276), 1.25 mM N-Acetyl-L-cysteine (Sigma-Aldrich, cat. A9165), 10 mM nicotinamide (Sigma-Aldrich, cat. N0636), 1X B-27 supplement (Thermo Fisher Scientific, cat. 17504044), 1X N-2 supplement (Thermo Fisher Scientific, cat. 17502048), 10 microM Y-27632 dihydrochloride (Tocris Bioscience, cat. 1254), and 50 ng/mL human EGF recombinant protein (Thermo Fisher Scientific, cat. PHG0311). The 485176-168-R4-J1-PDC line was cultured in Panc media, which includes all 6C/Colon 1B media components plus 100 ng/mL human FGF-10 (Thermo Fisher Scientific, cat. 100-26), 500 nM SB-431542 (Selleckchem, cat. S1067), and gastrin (Tocris, cat. 3006).
[…]
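Further: spheroids exposed to agents for seven days before readout.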
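Wherever viability, T/C is given: percent of vehicle control viability where 100% = DMSO wells.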

| Structure (SMILES) | pIC50 (curve of compound) | pIC50 (compound alone, run of 02/26/2024) | viability, T/C (compound 0.0316 µM) | viability, T/C (compound 0.1 µM) | viability, T/C (compound 0.316 µM) | viability, T/C (compound 1 µM) | viability, T/C (compound 3.16 µM) | viability, T/C (compound 10 µM) | viability, T/C (compound 0.000999 µM) | viability, T/C (compound 0.00316 µM) | viability, T/C (compound 0.00999 µM) | viability, T/C (compound 0.0999 µM) |
| --- | --- | --- | --- | --- | --- | --- | --- | --- | --- | --- | --- | --- |
| CC(=O)O[C@H]1C(=O)[C@@]2(C)[C@H]([C@H](OC(=O)c3ccccc3)[C@]3(O)C[C@H](OC(=O)[C@H](O)[C@@H](NC(=O)c4ccccc4)c4ccccc4)C(C)=C1C3(C)C)[C@]1(OC(C)=O)CO[C@@H]1C[C@@H]2O | < 5.00 |  | 100% and 92% and 97.8% | 66.6% and 80.5% and 89.4% | 82.2% and 93.6% and 90.7% | 83.6% and 86.1% and 96.7% | 89.6% and 91% and 100% | 93% and 104% and 107% |  |  |  |  |
| CC(C)(O)C1CCC(Nc2ccc3ncc(-c4cccc(C(F)(F)F)c4)n3n2)CC1 (stereo unspecified) | 5.35 and 5.59 and 5.65 |  | 110% and 93.1% and 96.4% | 95% and 90.9% and 102% | 85.7% and 91.3% and 93.8% | 75.3% and 74.9% and 73.6% | 45.3% and 41.7% and 38.7% | 46% and 47.1% and 39.8% |  |  |  |  |
| CC1COCCN1c1cc(C2(O)CC3CCC(C2)O3)c2cnn(-c3ccn[nH]3)c2n1 (stereo unspecified) | 6.00 and 5.66 and 5.70 |  | 86.4% and 103% and 91.5% | 85.4% and 80.9% and 79.5% | 74.2% and 74.5% and 71.8% | 48.6% and 56% and 53.5% | 37.3% and 46.2% and 47.5% | 28.3% and 38.1% and 36.4% |  |  |  |  |
| CC1COCCN1c1cc(C2(S(C)(=N)=O)CC2)nc(-c2ccnc3[nH]ccc23)n1 (stereo unspecified) | < 5.00 |  | 105% (2×) and 97.6% | 105% and 96.7% and 98.2% | 105% and 94.7% and 99.6% | 97.2% and 88.8% and 98.5% | 84.7% and 82.4% and 109% | 65.2% and 74.3% and 86.2% |  |  |  |  |
| CCCS(=O)(=O)Nc1ccc(F)c(C(=O)c2c[nH]c3ncc(-c4ccc(Cl)cc4)cc23)c1F | < 5.00 |  | 98.5% and 105% and 90.7% | 90.2% and 105% and 92.3% | 111% and 124% and 116% | 136% and 138% and 124% | 148% and 137% and 134% | 82% and 77.5% and 78.7% |  |  |  |  |
| CC[C@@]1(O)C(=O)OCc2c1cc1n(c2=O)Cc2cc3c(CN(C)C)c(O)ccc3nc2-1 | < 6.50 |  | 80.8% and 92.5% and 101% |  | 74.5% and 64.7% and 71.3% |  |  |  | 86.3% and 93.6% and 89.6% | 104% and 87.4% and 88.3% | 99.2% and 92.9% and 93% | 85.6% and 74.7% and 90.8% |
| CCc1c2c(nc3ccc(O)cc13)-c1cc3c(c(=O)n1C2)COC(=O)[C@]3(O)CC | 6.96 and 7.19 and 7.00 |  | 66.7% and 67.3% and 62.1% |  | 17.2% and 8.7% and 16.4% |  |  |  | 85.3% and 91.4% and 93.3% | 87.5% and 81.8% and 85.2% | 63.2% and 62.8% and 77.4% | 60.3% and 45.8% and 59% |

The next lines start with results.

| pIC50 (curve of compound) | pIC50 (compound alone, run of 02/26/2024) | Structure (SMILES) | viability, T/C (compound 0.0316 µM) | viability, T/C (compound 0.1 µM) | viability, T/C (compound 0.316 µM) | viability, T/C (compound 1 µM) | viability, T/C (compound 3.16 µM) | viability, T/C (compound 10 µM) | viability, T/C (compound 0.000999 µM) | viability, T/C (compound 0.00316 µM) | viability, T/C (compound 0.00999 µM) | viability, T/C (compound 0.0999 µM) |
| --- | --- | --- | --- | --- | --- | --- | --- | --- | --- | --- | --- | --- |
| 5.42 and 5.40 and 5.39 |  | C#Cc1c(F)ccc2cc(O)cc(-c3ncc4c(N5CC6CCC(C5)N6)nc(OCC56CCCN5CC(F)C6)nc4c3F)c12 (stereo unspecified) | 97.3% and 99.6% and 91.8% | 101% and 92.4% and 93% | 89.8% and 94.6% and 104% | 90.2% and 88.2% and 81.5% | 53.6% and 55.8% and 58.6% | 30% and 25.7% and 22.7% |  |  |  |  |
| < 5.00 |  | C=CC(=O)N1CCN(c2nc(=O)n(-c3c(C)ccnc3C(C)C)c3nc(-c4c(O)cccc4F)c(F)cc23)C(C)C1 (stereo unspecified) | 96.5% and 93.7% and 94.2% | 88.8% and 90% and 101% | 98.2% and 110% (2×) | 117% and 108% and 105% | 95.2% and 106% and 104% | 87% and 89.9% and 96.3% |  |  |  |  |
| < 5.00 |  | C=CCn1c(=O)c2cnc(Nc3ccc(N4CCN(C)CC4)cc3)nc2n1-c1cccc(C(C)(C)O)n1 | 90.4% and 95.2% and 93.1% | 81.6% and 90.3% and 88.1% | 68.6% and 78.2% and 86% | 75.6% and 70.3% and 89.2% | 65.7% and 58% and 84% | 74.5% and 66.7% and 91.9% |  |  |  |  |
| < 5.00 |  | CC(C)n1c(=O)n(C)c2cnc3cc(F)c(-c4ccc(OCCCN5CCCCC5)nc4)cc3c21 | 102% (2×) and 106% | 100% and 103% and 96.6% | 83.3% and 94.1% and 102% | 107% and 108% and 86.7% | 95.5% and 86.1% and 102% | 87.7% and 68.2% and 77.4% |  |  |  |  |
| 5.17 and < 5.00 and 5.58 |  | CC1COCCN1c1cc(-c2ccnn2C)c2ccnc(-c3ccn[nH]3)c2n1 (stereo unspecified) | 104% and 98% and 79.1% | 93% and 80.3% and 83.4% | 83.2% and 68.7% and 75% | 69.1% and 67.7% and 69.3% | 58.6% and 51.1% and 45.9% | 45.6% and 52.2% and 42.1% |  |  |  |  |
|  | < 5.00 | CN(C)c1ccc(Nc2c3ccc(NC(=O)CCN4CCCC4)cc3nc3cc(NC(=O)CCN4CCCC4)ccc23)cc1 | 96.8% [middle of 12 runs] | 97.9% [middle of 12 runs] | 92.3% [middle of 12 runs] | 79.7% [middle of 12 runs] | 78.5% [middle of 12 runs] | 84.1% [middle of 12 runs] |  |  |  |  |
